We go through 23 compounds from PubChem BioAssay AID256 (DTP/NCI, 2004).

This assay has as its system CD2F1 mice, L1210 leukemia ip, survival T/C. The assay can be described thus: NCI In Vivo Anticancer Drug Screen. Data for tumor model L1210 Leukemia (intraperitoneal) in CD2F1 (CDF1) mice. The settings on record: higher = longer survival. The method, boiled down:
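Activity against a transplanted murine tumor was judged by comparing the compound group with a vehicle group. The outcome in the treated animals was divided by that in the controls.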

[1] abbreviates: endpoint: mean survival time, dose: 100.0 mg/kg/injection, schedule: Q01DX009 (ip), vehicle: saline with Tween-80.
The mark [2] stands for this setting: endpoint: mean survival time, dose: 100.0 mg/kg/injection, schedule: Q04DX003 (ip), vehicle: saline with Tween-80.
Where [3] appears, read: endpoint: mean survival time, dose: 200.0 mg/kg/injection, schedule: Q01DX009 (ip), vehicle: saline with Tween-80.
[4] abbreviates: endpoint: mean survival time, dose: 200.0 mg/kg/injection, schedule: Q04DX003 (ip), vehicle: saline with Tween-80.
The mark [5] stands for this setting: endpoint: mean survival time, dose: 400.0 mg/kg/injection, schedule: Q01DX009 (ip), vehicle: saline with Tween-80.
[6] abbreviates: endpoint: mean survival time, dose: 400.0 mg/kg/injection, schedule: Q04DX003 (ip), vehicle: saline with Tween-80.
[7] abbreviates: endpoint: mean survival time, dose: 100.0 mg/kg/injection, schedule: Q01DX009 (ip), vehicle: saline.
The mark [8] stands for this setting: endpoint: mean survival time, dose: 200.0 mg/kg/injection, schedule: Q01DX009 (ip), vehicle: saline.
Where [9] appears, read: endpoint: mean survival time, dose: 12.5 mg/kg/injection, schedule: Q01DX009 (ip), vehicle: saline.
Setting [10] is: endpoint: mean survival time, dose: 25.0 mg/kg/injection, schedule: Q01DX009 (ip), vehicle: saline.
The mark [11] stands for this setting: endpoint: mean survival time, dose: 50.0 mg/kg/injection, schedule: Q01DX009 (ip), vehicle: saline.
Setting [12] is: endpoint: mean survival time, dose: 100.0 mg/kg/injection, schedule: Q04DX002 (ip), vehicle: saline with Tween-80.
Setting [13] is: endpoint: mean survival time, dose: 200.0 mg/kg/injection, schedule: Q04DX002 (ip), vehicle: saline with Tween-80.
[14] abbreviates: endpoint: mean survival time, dose: 25.0 mg/kg/injection, schedule: Q01DX009 (ip), vehicle: saline with Tween-80.
Setting [15] is: endpoint: mean survival time, dose: 50.0 mg/kg/injection, schedule: Q01DX009 (ip), vehicle: saline with Tween-80.
[16] abbreviates: endpoint: mean survival time, dose: 100.0 mg/kg/injection, schedule: Q04DX003 (ip), vehicle: saline.
Where [17] appears, read: endpoint: mean survival time, dose: 100.0 mg/kg/injection, schedule: Q01DX001 (ip), vehicle: saline with Tween-80.
[18] abbreviates: endpoint: mean survival time, dose: 200.0 mg/kg/injection, schedule: Q01DX001 (ip), vehicle: saline with Tween-80.
[19] abbreviates: endpoint: mean survival time, dose: 400.0 mg/kg/injection, schedule: Q01DX001 (ip), vehicle: saline with Tween-80.

Several values for one entry are separate records, joined by “and”; a condition that tells them apart may be missing. Equal values may be shown once. Toxic doses and inconclusive results are not listed.

On to `COC(=O)c1cccc(OC)c1OC`, for which the T/C is 101 % of control under setting [1]; 108 % of control under setting [2]; 96 % of control under setting [3]; 98 % of control under setting [4]; 98 % of control under setting [5]; 100 % of control under setting [6].

`CC(=O)/C(=N/O)c1ccccc1`: the T/C is 102 % of control (endpoint: mean survival time, dose: 75.0 mg/kg/injection, schedule: Q01DX009 (ip), vehicle: saline with Tween-80); 102 % of control under setting [2]; 94 % of control (endpoint: mean survival time, dose: 150.0 mg/kg/injection, schedule: Q01DX009 (ip), vehicle: saline with Tween-80); 102 % of control under setting [4]; 94 % of control under setting [6].

Take `O=[N+]([O-])CC(O)C(O)C(O)C(O)CO` (stereo unspecified): the T/C by setting is: under setting [7], 107 % of control; under setting [8], 112 % of control; (endpoint: mean survival time, dose: 400.0 mg/kg/injection, schedule: Q01DX009 (ip), vehicle: saline) 107 % of control.

Consider `ClC1CN2CCC1CC2` (stereo unspecified), for which the T/C is 95 % of control under setting [9]; 90 % of control and 105 % of control under setting [10]; 93 % of control and 94 % of control under setting [11].

`CN(C)C(=S)NN`: the T/C (endpoint: mean survival time, dose: 1.5 mg/kg/injection, schedule: Q01DX001 (ip), vehicle: saline) is 92 % of control; the T/C (endpoint: mean survival time, dose: 3.0 mg/kg/injection, schedule: Q01DX001 (ip), vehicle: saline) was 97 % of control; the T/C (endpoint: mean survival time, dose: 6.0 mg/kg/injection, schedule: Q01DX001 (ip), vehicle: saline) was 97 % of control.

With `O=[N+]([O-])c1ccccc1-c1n[nH]c2ccccc12`, the T/C is 113 % of control (endpoint: mean survival time, dose: 25.0 mg/kg/injection, schedule: Q04DX002 (ip), vehicle: saline with Tween-80); 106 % of control (endpoint: mean survival time, dose: 50.0 mg/kg/injection, schedule: Q04DX002 (ip), vehicle: saline with Tween-80); 106 % of control under setting [12]; 110 % of control under setting [13].

Take `C=CC(=O)NCNC(=O)C=C`: the T/C runs as follows: (endpoint: mean survival time, dose: 6.25 mg/kg/injection, schedule: Q01DX009 (ip), vehicle: saline) 97 % of control; under setting [9], 101 % of control and 102 % of control; under setting [14], 117 % of control; under setting [10], 97 % of control and 102 % of control; under setting [15], 114 % of control; under setting [11], 117 % of control and 104 % of control. The T/C reads like this: under setting [7], 117 % of control and 98 % of control; under setting [8], 96 % of control.

On to `CCc1c2c(nc3ccc(OC(=O)N4CCC(N5CCCCC5)CC4)cc13)-c1cc3c(c(=O)n1C2)COC(=O)[C@]3(O)CC`, for which the T/C (endpoint: median survival time, dose: 26.4 mg/kg/injection, schedule: Q04HX004 (iv), vehicle: water) is 177 % of control; the T/C (endpoint: median survival time, dose: 39.6 mg/kg/injection, schedule: Q04DX002 (ip), vehicle: water) was 206 % of control; the T/C (endpoint: median survival time, dose: 39.6 mg/kg/injection, schedule: Q04HX004 (iv), vehicle: water) was 192 % of control; the T/C (endpoint: median survival time, dose: 59.3 mg/kg/injection, schedule: Q04DX002 (ip), vehicle: water) was 231 % of control; the T/C (endpoint: median survival time, dose: 59.3 mg/kg/injection, schedule: Q04HX004 (iv), vehicle: water) is 193 % of control; the T/C (endpoint: median survival time, dose: 89.0 mg/kg/injection, schedule: Q04DX002 (ip), vehicle: water) is 500 % of control. Under “endpoint: median survival time, dose: 89.0 mg/kg/injection, schedule: Q04HX004 (iv), vehicle: water”, the T/C is 209 % of control.

`CC(C)(C)c1ccc(SCC#CCOc2ccc(Cl)cc2)cc1`: the T/C runs as follows: under setting [1], 95 % of control; under setting [2], 95 % of control; under setting [3], 91 % of control; under setting [4], 96 % of control; under setting [5], 88 % of control; under setting [6], 87 % of control.

Regarding `COC(=O)N1c2ccccc2C=CC1C#N` (stereo unspecified), the T/C is 89 % of control (endpoint: mean survival time, dose: 6.25 mg/kg/injection, schedule: Q01DX009 (ip), vehicle: saline with Tween-80); 103 % of control (endpoint: mean survival time, dose: 12.5 mg/kg/injection, schedule: Q01DX009 (ip), vehicle: saline with Tween-80); 97 % of control (endpoint: mean survival time, dose: 12.5 mg/kg/injection, schedule: Q04DX003 (ip), vehicle: saline with Tween-80); 95 % of control under setting [14]; 97 % of control (endpoint: mean survival time, dose: 25.0 mg/kg/injection, schedule: Q04DX003 (ip), vehicle: saline with Tween-80); 98 % of control under setting [15]. The T/C reads like this: (endpoint: mean survival time, dose: 50.0 mg/kg/injection, schedule: Q04DX003 (ip), vehicle: saline with Tween-80) 97 % of control; under setting [1], 101 % of control; under setting [2], 98 % of control; under setting [4], 95 % of control.

For the compound `CCOC(=O)c1cc2c3n(c1=O)CCCC3C(c1ccc(Cl)c(Cl)c1)OC2=O` (stereo unspecified), the T/C under setting [16] was 98 % of control; the T/C (endpoint: mean survival time, dose: 200.0 mg/kg/injection, schedule: Q04DX003 (ip), vehicle: saline) is 101 % of control; the T/C (endpoint: mean survival time, dose: 400.0 mg/kg/injection, schedule: Q04DX003 (ip), vehicle: saline) is 104 % of control.

With `N/C(=N/O)NO`, the T/C by setting is: (endpoint: median survival time, dose: 50.0 mg/kg/injection, schedule: Q01DX005 (ip), vehicle: saline) 109 % of control; (endpoint: median survival time, dose: 100.0 mg/kg/injection, schedule: Q01DX005 (ip), vehicle: saline) 110 % of control and 112 % of control; (endpoint: median survival time, dose: 200.0 mg/kg/injection, schedule: Q01DX005 (ip), vehicle: saline) 120 % of control and 123 % of control.

On to `CO/C(=N\C(=O)NC1CC(OC(=O)c2ccc(C)cc2)C(COC(=O)c2ccc(C)cc2)O1)NC(=O)c1ccc(C)cc1` (stereo unspecified), for which the T/C under setting [2] is 90 % of control.

As to `CN=C(c1ccccc1)C1(O)CC2CCC1C2` (stereo unspecified), the T/C is, setting by setting: (endpoint: mean survival time, dose: 100.0 mg/kg/injection, schedule: Q01DX001 (ip), vehicle: saline) 101 % of control; (endpoint: mean survival time, dose: 200.0 mg/kg/injection, schedule: Q01DX001 (ip), vehicle: saline) 98 % of control; (endpoint: mean survival time, dose: 400.0 mg/kg/injection, schedule: Q01DX001 (ip), vehicle: saline) 101 % of control.

Turning to `CCCCP(=O)(O)O`, the T/C under setting [17] was 92 % of control and the T/C under setting [18] was 100 % of control.

For `CCCCCCCCSC#N`, the T/C (endpoint: mean survival time, dose: 50.0 mg/kg/injection, schedule: Q01DX001 (ip), vehicle: carboxymethylcellulose (CMC)) is 100 % of control.

As to `CCCCC(CCC)OC(=O)Nc1cccc2ccccc12` (stereo unspecified), the T/C is, setting by setting: under setting [17], 93 % of control; under setting [18], 93 % of control; under setting [19], 93 % of control.

On to `COC(=O)CCCNC(C)C`, for which the T/C by setting is: (endpoint: mean survival time, dose: 12.5 mg/kg/injection, schedule: Q01DX009 (ip), vehicle: water) 101 % of control; (endpoint: mean survival time, dose: 25.0 mg/kg/injection, schedule: Q01DX009 (ip), vehicle: water) 95 % of control; (endpoint: mean survival time, dose: 50.0 mg/kg/injection, schedule: Q01DX009 (ip), vehicle: water) 102 % of control; (endpoint: mean survival time, dose: 100.0 mg/kg/injection, schedule: Q01DX009 (ip), vehicle: water) 95 % of control; (endpoint: mean survival time, dose: 200.0 mg/kg/injection, schedule: Q01DX009 (ip), vehicle: water) 102 % of control.

Turning to `O=C(O)c1ccccc1F`, the T/C was 96 % of control under setting [17] and 107 % of control under setting [18].

With `Cc1ccc(S(=O)(=O)NC(=O)OCCc2c3ccccc3nc3ccccc23)cc1`, the T/C was 97 % of control (endpoint: mean survival time, dose: 100.0 mg/kg/injection, schedule: Q04DX002 (ip), vehicle: other); 97 % of control under setting [12]; 97 % of control (endpoint: mean survival time, dose: 200.0 mg/kg/injection, schedule: Q04DX002 (ip), vehicle: other); 109 % of control under setting [13].

As to `O=C1CCCC2C1CCCC21OCCO1` (stereo unspecified), the T/C runs as follows: (endpoint: mean survival time, dose: 25.0 mg/kg/injection, schedule: Q04DX003 (ip), vehicle: saline) 93 % of control; (endpoint: mean survival time, dose: 50.0 mg/kg/injection, schedule: Q04DX003 (ip), vehicle: saline) 100 % of control; under setting [16], 102 % of control.

Take `COc1cc(/C=N/n2cnnc2)cc(OC)c1OC`: the T/C under setting [2] is 101 % of control, the T/C under setting [4] was 95 % of control and the T/C under setting [6] is 96 % of control.

Regarding `O=C1C2CCN(CC2)C1COc1cccc2ccccc12` (stereo unspecified), the T/C reads like this: under setting [17], 106 % of control; under setting [18], 95 % of control; under setting [19], 102 % of control.
